Measured values taken from patent US8562949B2, “Radiolabeled dihydrotetrabenazine derivatives and their use as imaging agents” (The Trustees of the University of Pennsylvania, priority 2006, dated 2013).
Where “and” joins values, the source holds several entries; their conditions need not be identical. Identical values can stand only once. Each block holds one molecule with its values, some of them ahead of it.

Tests used:
[1] = Biodistribution of [18F]6a and [18F]6b in normal mice (iv injection); format: in vivo, ICR mice
Method: While under isoflurane anesthesia, 0.15 mL of a 0.1% bovine serum albumin solution containing [^18F]tracers (10-20 μCi) were injected directly into the tail vein of ICR mice (22-25 g, male) The mice (n=3 for each time point) were sacrificed by cervical dislocation at indicated time points post injection. The organs of interest were removed and weighed, and the radioactivity was counted with an automatic gamma counter. The percentage dose per organ was calculated by a comparison of the tissue counts to suitably diluted aliquots of the injected material. Total activities of blood were calculated under the assumption that they were 7% of the total body weight. The % dose/g of samples was calculated by comparing the sample counts with the count of the diluted initial dose.

[2] = Human radiation dosimetry estimates from mouse biodistribution; conditions: adult male model
Source text: From the organ biodistribution data in Table 4 of Example 7, human radiation dosimetry estimates were calculates. In the mass based extrapolation, the concentration in the animal organs is converted to a concentration in human organs by multiplying the animal concentration by a ratio of the total body weight of the animals and humans (Kirschner, et al., 1975). Then the percent in the human organs is derived using organ masses taken from a standard model of the human body for adult males (Cristy and Eckerman, 1987). Data were fit using the SAAM II software (Foster and Barrett, 1999). Time integrals of activity were calculated and converted to residence times (Loevinger, et al., 1988); organ residence times were entered into the OLIND/EXM software (STabin, et al., 2005) using the adult male model. No excretion of activity was assumed; any activity not accounted for was considered to be uniformly distributed throughout the remainder of the body or removed only by physical decay. […] The estimated effective dose (0.047 rem/mCi) also compares favorably to radiation doses received with other approved radiopharmaceuticals.

[3] = tested on: islet cell homogenates; test: In vitro binding to islet cell homogenates (FIG. 8)

Compound: COc1cc2c(cc1OCCC[18F])CCN1CC(CC(C)C)C(O)CC21 (racemic) [[^18F]6b]
remaining in brain (brain washout) ([1]; 30 min p.i., normal mice): 13%
brain uptake ([1]; mice, iv, 2 min): 7.08 % ID/g
ST/CB ratio ([1]; mice, iv, time not stated): 3.0
Organ distribution Blood ([1]; normal mice, iv, 2 min): 2.60 ± 0.31 % dose/g
Organ distribution Bone ([1]; normal mice, iv, 2 min): 2.70 ± 0.44 % dose/g
Organ distribution Brain ([1]; normal mice, iv, 2 min): 7.08 % dose/g and 7.08 ± 2.17 % dose/g
Organ distribution Heart ([1]; normal mice, iv, 2 min): 6.79 ± 1.49 % dose/g
Organ distribution Kidney ([1]; normal mice, iv, 2 min): 16.1 ± 3.13 % dose/g
Organ distribution Liver ([1]; normal mice, iv, 2 min): 24.1 ± 4.93 % dose/g
Organ distribution Lung ([1]; normal mice, iv, 2 min): 7.97 ± 1.46 % dose/g
Organ distribution Muscle ([1]; normal mice, iv, 2 min): 1.17 ± 0.16 % dose/g
Organ distribution Skin ([1]; normal mice, iv, 2 min): 1.13 ± 0.25 % dose/g
Organ distribution Spleen ([1]; normal mice, iv, 2 min): 9.19 ± 0.26 % dose/g
Ratio (vs CB) Cortex ([1]; normal mice, iv, 2 min): 1.32
Ratio (vs CB) Hippocampus ([1]; normal mice, iv, 2 min): 1.13
Ratio (vs CB) Striatum ([1]; normal mice, iv, 2 min): 1.36
Regional brain distribution Cerebellum (CB) ([1]; normal mice, iv, 2 min): 6.26 ± 2.89 % dose/g
Regional brain distribution Cortex ([1]; normal mice, iv, 2 min): 8.25 ± 2.51 % dose/g
Regional brain distribution Hippocampus ([1]; normal mice, iv, 2 min): 7.07 ± 1.66 % dose/g
Regional brain distribution Striatum ([1]; normal mice, iv, 2 min): 8.49 ± 1.12 % dose/g
Organ distribution Blood ([1]; normal mice, iv, 15 min): 1.75 ± 0.07 % dose/g
Organ distribution Bone ([1]; normal mice, iv, 15 min): 3.65 ± 0.49 % dose/g
Organ distribution Brain ([1]; normal mice, iv, 15 min): 2.01 ± 0.10 % dose/g
Organ distribution Heart ([1]; normal mice, iv, 15 min): 2.43 ± 0.16 % dose/g
Organ distribution Kidney ([1]; normal mice, iv, 15 min): 5.90 ± 0.25 % dose/g
Organ distribution Liver ([1]; normal mice, iv, 15 min): 15.8 ± 1.65 % dose/g
Organ distribution Lung ([1]; normal mice, iv, 15 min): 3.58 ± 0.33 % dose/g
Organ distribution Muscle ([1]; normal mice, iv, 15 min): 1.16 ± 0.35 % dose/g
Organ distribution Skin ([1]; normal mice, iv, 15 min): 1.15 ± 0.16 % dose/g
Organ distribution Spleen ([1]; normal mice, iv, 15 min): 3.38 ± 0.49 % dose/g
Ratio (vs CB) Cortex ([1]; normal mice, iv, 15 min): 1.00
Ratio (vs CB) Hippocampus ([1]; normal mice, iv, 15 min): 1.31
Ratio (vs CB) Striatum ([1]; normal mice, iv, 15 min): 2.53
Regional brain distribution Cerebellum (CB) ([1]; normal mice, iv, 15 min): 1.63 ± 0.05 % dose/g
Regional brain distribution Cortex ([1]; normal mice, iv, 15 min): 1.62 ± 0.05 % dose/g
Regional brain distribution Hippocampus ([1]; normal mice, iv, 15 min): 2.14 ± 0.16 % dose/g
Regional brain distribution Striatum ([1]; normal mice, iv, 15 min): 4.12 ± 0.52 % dose/g
Organ distribution Blood ([1]; normal mice, iv, 30 min): 1.92 ± 0.22 % dose/g
Organ distribution Bone ([1]; normal mice, iv, 30 min): 9.62 ± 3.42 % dose/g
Organ distribution Brain ([1]; normal mice, iv, 30 min): 1.76 ± 0.27 % dose/g
Organ distribution Heart ([1]; normal mice, iv, 30 min): 2.67 ± 0.26 % dose/g
Organ distribution Kidney ([1]; normal mice, iv, 30 min): 6.80 ± 0.65 % dose/g
Organ distribution Liver ([1]; normal mice, iv, 30 min): 17.3 ± 2.00 % dose/g
Organ distribution Lung ([1]; normal mice, iv, 30 min): 3.46 ± 0.36 % dose/g
Organ distribution Muscle ([1]; normal mice, iv, 30 min): 1.53 ± 0.16 % dose/g
Organ distribution Skin ([1]; normal mice, iv, 30 min): 2.22 ± 0.20 % dose/g
Organ distribution Spleen ([1]; normal mice, iv, 30 min): 3.40 ± 0.43 % dose/g
Ratio (vs CB) Cortex ([1]; normal mice, iv, 30 min): 1.11
Ratio (vs CB) Hippocampus ([1]; normal mice, iv, 30 min): 1.97
Ratio (vs CB) Striatum ([1]; normal mice, iv, 30 min): 3.0 and 2.95
Regional brain distribution Cerebellum (CB) ([1]; normal mice, iv, 30 min): 1.30 ± 0.19 % dose/g
Regional brain distribution Cortex ([1]; normal mice, iv, 30 min): 1.45 ± 0.38 % dose/g
Regional brain distribution Hippocampus ([1]; normal mice, iv, 30 min): 2.55 ± 1.20 % dose/g
Regional brain distribution Striatum ([1]; normal mice, iv, 30 min): 3.84 ± 1.05 % dose/g
Organ distribution Bone ([1]; normal mice, iv, 30 min, listed as [^1F]6b): 9.62 % dose/g
Organ distribution Blood ([1]; normal mice, iv, 1 hr): 1.04 ± 0.07 % dose/g
Organ distribution Bone ([1]; normal mice, iv, 1 hr): 16.6 ± 1.60 % dose/g
Organ distribution Brain ([1]; normal mice, iv, 1 hr): 0.91 ± 0.25 % dose/g
Organ distribution Heart ([1]; normal mice, iv, 1 hr): 1.74 ± 0.14 % dose/g
Organ distribution Kidney ([1]; normal mice, iv, 1 hr): 3.63 ± 0.30 % dose/g
Organ distribution Liver ([1]; normal mice, iv, 1 hr): 10.4 ± 0.95 % dose/g
Organ distribution Lung ([1]; normal mice, iv, 1 hr): 2.15 ± 0.12 % dose/g
Organ distribution Muscle ([1]; normal mice, iv, 1 hr): 1.05 ± 0.41 % dose/g
Organ distribution Skin ([1]; normal mice, iv, 1 hr): 1.38 ± 0.03 % dose/g
Organ distribution Spleen ([1]; normal mice, iv, 1 hr): 2.05 ± 0.05 % dose/g
Ratio (vs CB) Cortex ([1]; normal mice, iv, 1 hr): 1.10
Ratio (vs CB) Hippocampus ([1]; normal mice, iv, 1 hr): 1.35
Ratio (vs CB) Striatum ([1]; normal mice, iv, 1 hr): 2.71
Regional brain distribution Cerebellum (CB) ([1]; normal mice, iv, 1 hr): 0.77 ± 0.06 % dose/g
Regional brain distribution Cortex ([1]; normal mice, iv, 1 hr): 0.85 ± 0.12 % dose/g
Regional brain distribution Hippocampus ([1]; normal mice, iv, 1 hr): 1.04 ± 0.16 % dose/g
Regional brain distribution Striatum ([1]; normal mice, iv, 1 hr): 2.08 ± 0.27 % dose/g
Organ distribution Blood ([1]; normal mice, iv, 2 hr): 0.56 ± 0.07 % dose/g
Organ distribution Bone ([1]; normal mice, iv, 2 hr): 17.8 ± 1.83 % dose/g
Organ distribution Brain ([1]; normal mice, iv, 2 hr): 0.53 ± 0.05 % dose/g
Organ distribution Heart ([1]; normal mice, iv, 2 hr): 1.02 ± 0.09 % dose/g
Organ distribution Kidney ([1]; normal mice, iv, 2 hr): 2.40 ± 0.51 % dose/g
Organ distribution Liver ([1]; normal mice, iv, 2 hr): 8.53 ± 1.73 % dose/g
Organ distribution Lung ([1]; normal mice, iv, 2 hr): 1.40 ± 0.09 % dose/g
Organ distribution Muscle ([1]; normal mice, iv, 2 hr): 0.56 ± 0.11 % dose/g
Organ distribution Skin ([1]; normal mice, iv, 2 hr): 1.24 ± 0.53 % dose/g
Organ distribution Spleen ([1]; normal mice, iv, 2 hr): 1.15 ± 0.41 % dose/g
Ratio (vs CB) Cortex ([1]; normal mice, iv, 2 hr): 0.91
Ratio (vs CB) Hippocampus ([1]; normal mice, iv, 2 hr): 1.12
Ratio (vs CB) Striatum ([1]; normal mice, iv, 2 hr): 1.94
Regional brain distribution Cerebellum (CB) ([1]; normal mice, iv, 2 hr): 0.45 ± 0.01 % dose/g
Regional brain distribution Cortex ([1]; normal mice, iv, 2 hr): 0.41 ± 0.06 % dose/g
Regional brain distribution Hippocampus ([1]; normal mice, iv, 2 hr): 0.50 ± 0.06 % dose/g
Regional brain distribution Striatum ([1]; normal mice, iv, 2 hr): 0.87 ± 0.24 % dose/g

human radiation dose, liver and bone surface [2]: around 0.11 rem/mCi
human radiation dose, most organs [2]: 0.04-0.06 rem/mCi
Compound: COc1cc2c(cc1OCCC[18F])CCN1C[C@@H](CC(C)C)[C@H](O)C[C@H]21 [[^18F]-(+)-6b]
binding to islet cell homogenates [3]: specific and saturable
